Data: PubChem BioAssay AID2060345 (Molecular Pharmacology Branch, DTP, NCI, 2025)

System: MALME-3M multicell spheroids, viability
Assay: Anticancer human tumor MALME-3M cell line growth inhibition [TAK];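 also: spheroids exposed to drugs for seven days before readout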;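 as to viability, T/C: 100% = DMSO vehicle control viability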
Conditions: for IC50: curve of first compound; for viability, T/C: stronger effect = lower value
Excerpt: Combinatorial screen of targeted agents with TAK-243 and ipatasertib in multi-cell type tumor spheroids
A high-throughput screen of multi-cell type tumor spheroids was designed to identify active combinations of targeted small molecules and TAK-243 or ipatasertib. Complex spheroids include a stromal component modeled by human endothelial cells (HUVEC) and fibroblasts modeled by human mesenchymal stem cells (MSCs). The concentration ranges selected for each drug and investigational agent were based upon clinically achievable concentrations if the clinical Cmax of the agent was known.
Compounds. The drugs and investigational agents: TAK-243 (785004), ipatasertib (767898), everolimus (733504), selumetinib (741078), bortezomib (756655), trametinib (758246), ixazomib (758254), vemurafenib (761431), dabrafenib (764134), sapanisertib (764658), alpelisib (765974), and copanlisib (816437), were obtained from the National Cancer Institute (NCI) Developmental Therapeutics Program Chemical Repository. The FDA-approved anticancer drug set is available from the NCI Developmental Therapeutics Program. […] The stock solutions were prepared in dimethyl sulfoxide (DMSO, Sigma-Aldrich, St. Louis, MO, cat. D2650) at 800-fold the tested concentration and stored at -70 degrees C prior to their use. All drugs and investigational agents were tested over a range starting from a high concentration at or near the clinical Cmax and decreasing in half-log increments. If the clinical Cmax for an agent had not been determined, the highest concentration tested was 10 microM.
NCI60 Cell Culture. NCI60 cell lines were obtained from the NCI Developmental Therapeutics Program Tumor Repository. For each lot of cells, the Repository performed Applied Biosystems AmpFLSTR Identifiler testing with PCR amplification to confirm consistency with the published Identifier STR profile for each cell line. Cells were kept in continuous culture for no more than 20 passages. The optimal seeding densities for each of the cell lines at each time point assessed were determined prior to performing the concentration response studies. Briefly, the NCI60 human tumor lines were grown as monolayers in RPMI 1640 medium supplemented with 10% FBS and 2 mmol/L L-glutamine.
An additional 2 lines were from the NCI60 cell line panel including melanomas, MALME-3M and SK-MEL-2. Pooled donor human umbilical vein endothelial cells (HUVEC, Lonza, cat. CC-2519) and human mesenchymal stem cells (hMSC, Lonza, cat. PT-2501) were purchased from Lonza (Walkersville, MD).
PDMR cell lines were grown in complete medium (DC medium): Dulbecco's modified Eagle's medium (DMEM)/F12 supplemented with 5% fetal bovine serum (FBS), 2 mM L-glutamine, 100 U/mL penicillin and 100 µg/ml streptomycin, 0.4 µg/ml hydrocortisone, 10 ng/ml epidermal growth factor (EGF) recombinant human protein, 24 µg/mL adenine, and 0.1 mg/mL primocin. During culture from frozen stock vials, PDMR cells were cultured in the same medium containing 10 µM Y-27632 (see Table 3). The PDCs were cultured in complete DMEM/F12 media without 10 microM Y-27632 dihydrochloride for at least two passages prior to the screen. The pooled donor HUVEC and hMSC were cultured in endothelial cell growth medium 2 (PromoCell, Heidelberg, Germany, cat. C-22011) and mesenchymal stem cell growth medium 2 (PromoCell, cat. C-28009), respectively. For all experiments, HUVEC and hMSC were used at passages </=5.
For the pre-screen, cell seeding densities were determined from a titration spanning the range from 5,000 to 313 cells per well. The mct-spheroids including 60% malignant cells, 25% HUVEC and 15% MSC dispensed as a mixture into U-bottom Ultra-Low Attachment 384-well plates (Corning, NY)
High-throughput Drug Combination Screening.
Prior to their inoculation into 384-well plates, malignant cells, HUVEC, and hMSC were removed from T flasks using TrypLE express (Thermo Fisher Scientific, cat. 12605036) and harvested by centrifugation for 5 min at 233 x g. […]

[1] = second compound 0.3 µM, first compound 0.0316 µM
[2] = second compound 0.3 µM, first compound 0.1 µM
[3] = second compound 0.3 µM, first compound 0.316 µM
[4] = second compound 0.3 µM, first compound 1 µM
[5] = second compound 0.3 µM, first compound 3.16 µM
[6] = second compound 0.3 µM, first compound 10 µM
[7] = second compound 0.949 µM, first compound 0.0316 µM
[8] = second compound 0.949 µM, first compound 0.1 µM
[9] = second compound 0.949 µM, first compound 0.316 µM
[10] = second compound 0.949 µM, first compound 1 µM
[11] = second compound 0.949 µM, first compound 3.16 µM
[12] = second compound 0.949 µM, first compound 10 µM
[13] = second compound 3 µM, first compound 0.0316 µM
[14] = second compound 3 µM, first compound 0.1 µM
[15] = second compound 3 µM, first compound 0.316 µM
[16] = second compound 3 µM, first compound 1 µM
[17] = second compound 3 µM, first compound 3.16 µM
[18] = second compound 3 µM, first compound 10 µM
[19] = second compound 9.49 µM, first compound 0.0316 µM
[20] = second compound 9.49 µM, first compound 0.1 µM
[21] = second compound 9.49 µM, first compound 0.316 µM
[22] = second compound 9.49 µM, first compound 1 µM
[23] = second compound 9.49 µM, first compound 3.16 µM
[24] = second compound 9.49 µM, first compound 10 µM
[25] = second compound 30 µM, first compound 0.0316 µM
[26] = second compound 30 µM, first compound 0.1 µM
[27] = second compound 30 µM, first compound 0.316 µM
[28] = second compound 30 µM, first compound 1 µM
[29] = second compound 30 µM, first compound 3.16 µM
[30] = second compound 30 µM, first compound 10 µM
[31] = second compound 0.3 µM, first compound 0.000316 µM
[32] = second compound 0.3 µM, first compound 0.001 µM
[33] = second compound 0.3 µM, first compound 0.00316 µM
[34] = second compound 0.3 µM, first compound 0.01 µM
[35] = second compound 0.949 µM, first compound 0.000316 µM
[36] = second compound 0.949 µM, first compound 0.001 µM
[37] = second compound 0.949 µM, first compound 0.00316 µM
[38] = second compound 0.949 µM, first compound 0.01 µM
[39] = second compound 3 µM, first compound 0.000316 µM
[40] = second compound 3 µM, first compound 0.001 µM
[41] = second compound 3 µM, first compound 0.00316 µM
[42] = second compound 3 µM, first compound 0.01 µM
[43] = second compound 9.49 µM, first compound 0.000316 µM
[44] = second compound 9.49 µM, first compound 0.001 µM
[45] = second compound 9.49 µM, first compound 0.00316 µM
[46] = second compound 9.49 µM, first compound 0.01 µM
[47] = second compound 30 µM, first compound 0.000316 µM
[48] = second compound 30 µM, first compound 0.001 µM
[49] = second compound 30 µM, first compound 0.00316 µM
[50] = second compound 30 µM, first compound 0.01 µM

## CC(C)(C)c1nc(-c2cccc(NS(=O)(=O)c3c(F)cccc3F)c2F)c(-c2ccnc(N)n2)s1 + CC(C)NCC(C(=O)N1CCN(c2ncnc3c2C(C)CC3O)CC1)c1ccc(Cl)cc1
Second compound 0.3 µM
  IC50: < 31.6 nM
Second compound 0.949 µM
  IC50: < 31.6 nM
Second compound 3 µM
  IC50: < 31.6 nM
Second compound 9.49 µM
  IC50: < 31.6 nM
Second compound 30 µM
  IC50: < 31.6 nM
[1]
  viability, T/C: 26.6%
[2]
  viability, T/C: 23.6%
[3]
  viability, T/C: 25%
[4]
  viability, T/C: 25.8%
[5]
  viability, T/C: 22.2%
[6]
  viability, T/C: 29.6%
[7]
  viability, T/C: 27.1%
[8]
  viability, T/C: 26.2%
[9]
  viability, T/C: 23.2%
[10]
  viability, T/C: 24.8%
[11]
  viability, T/C: 20.6%
[12]
  viability, T/C: 26.2%
[13]
  viability, T/C: 25.4%
[14]
  viability, T/C: 26.8%
[15]
  viability, T/C: 21.3%
[16]
  viability, T/C: 20.1%
[17]
  viability, T/C: 15.4%
[18]
  viability, T/C: 21.5%
[19]
  viability, T/C: 23%
[20]
  viability, T/C: 21%
[21]
  viability, T/C: 19.5%
[22]
  viability, T/C: 15.6%
[23]
  viability, T/C: 14.1%
[24]
  viability, T/C: 17.1%
[25]
  viability, T/C: 17.1%
[26]
  viability, T/C: 18.4%
[27]
  viability, T/C: 18.5%
[28]
  viability, T/C: 11.4%
[29]
  viability, T/C: 8.12%
[30]
  viability, T/C: 11.6%

## CC(C)CC(NC(=O)CNC(=O)c1cc(Cl)ccc1Cl)B1OC(=O)CC(CC(=O)O)(C(=O)O)O1 (stereo not given) + CC(C)NCC(C(=O)N1CCN(c2ncnc3c2C(C)CC3O)CC1)c1ccc(Cl)cc1
Second compound 0.3 µM
  IC50: 16.8 nM
Second compound 0.949 µM
  IC50: 17.5 nM
Second compound 3 µM
  IC50: 9.34 nM
Second compound 9.49 µM
  IC50: 11.8 nM
Second compound 30 µM
  IC50: < 0.316 nM
[31]
  viability, T/C: 109%
[32]
  viability, T/C: 97.2%
[33]
  viability, T/C: 90.6%
[34]
  viability, T/C: 82.6%
[1]
  viability, T/C: 10.4%
[2]
  viability, T/C: 0.25%
[35]
  viability, T/C: 92.4%
[36]
  viability, T/C: 89%
[37]
  viability, T/C: 95.4%
[38]
  viability, T/C: 87.2%
[7]
  viability, T/C: 10.7%
[8]
  viability, T/C: 0.17%
[39]
  viability, T/C: 90.5%
[40]
  viability, T/C: 77%
[41]
  viability, T/C: 77.5%
[42]
  viability, T/C: 49.1%
[13]
  viability, T/C: 6.98%
[14]
  viability, T/C: 0.17%
[43]
  viability, T/C: 70.9%
[44]
  viability, T/C: 68%
[45]
  viability, T/C: 64.8%
[46]
  viability, T/C: 57.6%
[19]
  viability, T/C: 5.18%
[20]
  viability, T/C: 0.17%
[47]
  viability, T/C: 48.2%
[48]
  viability, T/C: 49.8%
[49]
  viability, T/C: 45.2%
[50]
  viability, T/C: 30.9%
[25]
  viability, T/C: 4.73%
[26]
  viability, T/C: 0.24%

## CC(C)n1nc(-c2ccc3oc(N)nc3c2)c2c(N)ncnc21 + CC(C)NCC(C(=O)N1CCN(c2ncnc3c2C(C)CC3O)CC1)c1ccc(Cl)cc1
Second compound 0.3 µM
  IC50: 12.1 nM
Second compound 0.949 µM
  IC50: 7.82 nM
Second compound 3 µM
  IC50: 5.3 nM
Second compound 9.49 µM
  IC50: 1.81 nM
Second compound 30 µM
  IC50: < 0.316 nM
[31]
  viability, T/C: 87.8%
[32]
  viability, T/C: 76.1%
[33]
  viability, T/C: 69.3%
[34]
  viability, T/C: 55.7%
[1]
  viability, T/C: 31.3%
[2]
  viability, T/C: 11.2%
[35]
  viability, T/C: 81.6%
[36]
  viability, T/C: 74.7%
[37]
  viability, T/C: 65.6%
[38]
  viability, T/C: 46.6%
[7]
  viability, T/C: 23.1%
[8]
  viability, T/C: 10%
[39]
  viability, T/C: 67.6%
[40]
  viability, T/C: 61.1%
[41]
  viability, T/C: 52.4%
[42]
  viability, T/C: 45.8%
[13]
  viability, T/C: 14.5%
[14]
  viability, T/C: 6.89%
[43]
  viability, T/C: 62%
[44]
  viability, T/C: 56.7%
[45]
  viability, T/C: 43.7%
[46]
  viability, T/C: 22.5%
[19]
  viability, T/C: 9.06%
[20]
  viability, T/C: 4.23%
[47]
  viability, T/C: 36.5%
[48]
  viability, T/C: 37.5%
[49]
  viability, T/C: 28.6%
[50]
  viability, T/C: 17.2%
[25]
  viability, T/C: 8.52%
[26]
  viability, T/C: 4.01%

## CCCS(=O)(=O)Nc1ccc(F)c(C(=O)c2c[nH]c3ncc(-c4ccc(Cl)cc4)cc23)c1F + CC(C)NCC(C(=O)N1CCN(c2ncnc3c2C(C)CC3O)CC1)c1ccc(Cl)cc1
Second compound 0.3 µM
  IC50: < 316 nM
Second compound 0.949 µM
  IC50: < 316 nM
Second compound 3 µM
  IC50: < 316 nM
Second compound 9.49 µM
  IC50: < 316 nM
Second compound 30 µM
  IC50: < 316 nM
[3]
  viability, T/C: 29.3%
[4]
  viability, T/C: 21.5%
[5]
  viability, T/C: 23.6%
[6]
  viability, T/C: 19.3%
Second compound 0.3 µM, first compound 31.6 µM
  viability, T/C: 0.51%
Second compound 0.3 µM, first compound 100 µM
  viability, T/C: 11.1%
[9]
  viability, T/C: 31.8%
[10]
  viability, T/C: 25.8%
[11]
  viability, T/C: 23.6%
[12]
  viability, T/C: 22.1%
Second compound 0.949 µM, first compound 31.6 µM
  viability, T/C: 2.72%
Second compound 0.949 µM, first compound 100 µM
  viability, T/C: 12.1%
[15]
  viability, T/C: 30%
[16]
  viability, T/C: 24.9%
[17]
  viability, T/C: 21.4%
[18]
  viability, T/C: 15.9%
Second compound 3 µM, first compound 31.6 µM
  viability, T/C: 1.69%
Second compound 3 µM, first compound 100 µM
  viability, T/C: 3.88%
[21]
  viability, T/C: 24.8%
[22]
  viability, T/C: 20.6%
[23]
  viability, T/C: 17.9%
[24]
  viability, T/C: 10.8%
Second compound 9.49 µM, first compound 31.6 µM
  viability, T/C: 0.89%
Second compound 9.49 µM, first compound 100 µM
  viability, T/C: 1.65%
[27]
  viability, T/C: 15.1%
[28]
  viability, T/C: 16.4%
[29]
  viability, T/C: 9.92%
[30]
  viability, T/C: 0.89%
Second compound 30 µM, first compound 31.6 µM
  viability, T/C: 0.35%
Second compound 30 µM, first compound 100 µM
  viability, T/C: 0.54%
